# Active and inactive are the calls of the source. The rule behind the calls is not given here.
# Key:
# Pseudomonas aeruginosa [1] = assay: Antibacterial activity against multidrug-resistant Pseudomonas aeruginosa CCARM 2095 after 24 hrs; type: functional; conditions: CCARM 2095, 24 h
# RAW264.7 [2] = assay: Anti-inflammatory activity in mouse RAW264.7 cells assessed as reduction in LPS-induced TNF-alpha mRNA expression at 10 uM after 3 hrs by RT-PCR analysis; type: functional, cell-based
# Staphylococcus aureus [3] = assay: Antibacterial activity against methicillin resistant Staphylococcus aureus CCARM 3090 after 24 hrs; type: functional; conditions: CCARM 3090, 24 h
# [4] = system: Staphylococcus epidermidis; assay: Antibacterial activity against Staphylococcus epidermidis KCTC 1917 after 24 hrs; type: functional; conditions: KCTC 1917, 24 h
# Escherichia coli [5] = assay: Antibacterial activity against Escherichia coli KCTC 1682 in presence of 6 uM NH4Cl after 24 hrs; type: functional; conditions: KCTC 1682, 24 h
# Staphylococcus aureus [6] = assay: Antibacterial activity against Staphylococcus aureus KCTC 1621 after 24 hrs; type: functional; conditions: KCTC 1621, 24 h
# Staphylococcus aureus [7] = assay: Antibacterial activity against Staphylococcus aureus KCTC 1621 in presence of 6 uM NH4Cl after 24 hrs; type: functional; conditions: KCTC 1621, 24 h
# Pseudomonas aeruginosa [8] = assay: Antibacterial activity against Pseudomonas aeruginosa KCTC 1637 after 24 hrs; type: functional; conditions: KCTC 1637, 24 h
# Escherichia coli [9] = assay: Antibacterial activity against Escherichia coli KCTC 1682 in presence of 20% human serum after 24 hrs; type: functional; conditions: KCTC 1682, 24 h
# Salmonella typhimurium = assay: Antibacterial activity against Salmonella typhimurium KCTC 11926 after 24 hrs; type: functional, Salmonella enterica subsp. enterica serovar Typhimurium; conditions: Salmonella enterica, KCTC 11926, 24 h
# Staphylococcus aureus [10] = assay: Antibacterial activity against Staphylococcus aureus KCTC 1621 in presence of 150 mM NaCl after 24 hrs; type: functional; conditions: KCTC 1621, 24 h
# Enterococcus faecium [11] = assay: Potency index, ratio of LL-37 MIC to compound MIC for Vancomycin-resistant Enterococcus faecium ATCC 51559; type: functional
# Pseudomonas aeruginosa [12] = assay: Antibacterial activity against multidrug-resistant Pseudomonas aeruginosa CCARM 2109 after 24 hrs; type: functional; conditions: CCARM 2109, 24 h
# Escherichia coli [13] = assay: Antibacterial activity against Escherichia coli KCTC 1682 in presence of 4.5 mM KCl after 24 hrs; type: functional; conditions: KCTC 1682, 24 h
# Staphylococcus aureus [14] = assay: Antibacterial activity against methicillin resistant Staphylococcus aureus CCARM 3089 after 24 hrs; type: functional; conditions: CCARM 3089, 24 h
# Staphylococcus aureus [15] = assay: Antibacterial activity against Staphylococcus aureus KCTC 1621 in presence of 1 mM MgCl2 after 24 hrs; type: functional; conditions: KCTC 1621, 24 h
# Staphylococcus aureus [16] = assay: Potency index, ratio of melittin MIC to compound MIC for methicillin resistant Staphylococcus aureus CCARM 3090; type: functional
# Erythrocyte = assay: Hemolytic activity in human RBC after 1 hr; type: ADME, cell-based
# Staphylococcus aureus [17] = assay: Potency index, ratio of LL-37 MIC to compound MIC for methicillin resistant Staphylococcus aureus CCARM 3089; type: functional
# Bacillus subtilis = assay: Antibacterial activity against Bacillus subtilis KCTC 3068 after 24 hrs; type: functional; conditions: KCTC 3068, 24 h
# Enterococcus faecium [18] = assay: Potency index, ratio of melittin MIC to compound MIC for Vancomycin-resistant Enterococcus faecium ATCC 51559; type: functional
# Escherichia coli [19] = assay: Antibacterial activity against Escherichia coli KCTC 1682 in presence of 150 mM NaCl after 24 hrs; type: functional; conditions: KCTC 1682, 24 h
# Staphylococcus aureus [20] = assay: Potency index, ratio of melittin MIC to compound MIC for methicillin resistant Staphylococcus aureus CCARM 3095; type: functional
# [21] = Binding affinity to EYPC/cholesterol small unilamellar vesicles assessed as intrinsic tryptophan acrylamide quenching constant by fluorescence assay (reference value: 5.95 to 7.56 /M)
# RAW264.7 [22] = assay: Anti-inflammatory activity in mouse RAW264.7 cells assessed as reduction in LPS-induced MCP-1 production at 10 to 20 uM preincubated for 1 hr followed by LPS stimulation measured after 6 hrs by ELISA; type: functional, cell-based
# Pseudomonas aeruginosa [23] = assay: Antibiofilm activity against multidrug-resistant Pseudomonas aeruginosa CCARM 2095 after 24 hrs by crystal violet staining based assay; type: functional
# RAW264.7 [24] = assay: Anti-inflammatory activity in mouse RAW264.7 cells assessed as reduction in LPS-induced IL-6 production at 10 to 20 uM preincubated for 1 hr followed by LPS stimulation measured after 6 hrs by ELISA; type: functional, cell-based
# Pseudomonas aeruginosa [25] = assay: Synergistic antibacterial activity against multidrug-resistant Pseudomonas aeruginosa CCARM 2095 after 72 hrs in presence of ciprofloxacin by chequerboard assay; type: functional
# Escherichia coli [26] = assay: Antibacterial activity against Escherichia coli KCTC 1682 in presence of 1 mM MgCl2 after 24 hrs; type: functional; conditions: KCTC 1682, 24 h
# RAW264.7 [27] = assay: Anti-inflammatory activity in mouse RAW264.7 cells assessed as reduction in LPS-induced nitric oxide production at 10 to 20 uM after 24 hrs by Griess assay; type: functional, cell-based
# Staphylococcus aureus [28] = assay: Antibacterial activity against Staphylococcus aureus KCTC 1621 in presence of 4.5 mM KCl after 24 hrs; type: functional; conditions: KCTC 1621, 24 h
# Pseudomonas aeruginosa [29] = assay: Potency index, ratio of melittin MIC to compound MIC for multidrug-resistant Pseudomonas aeruginosa CCARM 2109; type: functional
# Lipid bilayer = assay: Binding affinity to EYPE/EYPG small unilamellar vesicles assessed as intrinsic tryptophan acrylamide quenching constant by fluorescence assay (reference value: 5.95 to 7.56 /M)
# Staphylococcus aureus [30] = assay: Antibacterial activity against Staphylococcus aureus KCTC 1621 assessed as cytoplasmic membrane depolarization at 2 times MIC by disC3-5 dye based fluorescence assay; type: functional, organism-based
# Pseudomonas aeruginosa [31] = assay: Potency index, ratio of melittin MIC to compound MIC for multidrug-resistant Pseudomonas aeruginosa CCARM 2095; type: functional
# Pseudomonas aeruginosa [32] = assay: Synergistic antibacterial activity against multidrug-resistant Pseudomonas aeruginosa CCARM 2095 after 72 hrs in presence of chloramphenicol by chequerboard assay; type: functional
# Enterococcus faecium [33] = assay: Antibacterial activity against Vancomycin-resistant Enterococcus faecium ATCC 51559 after 24 hrs; type: functional; conditions: ATCC 51559, 24 h
# Pseudomonas aeruginosa [34] = assay: Potency index, ratio of LL-37 MIC to compound MIC for multidrug-resistant Pseudomonas aeruginosa CCARM 2095; type: functional
# RAW264.7 [35] = assay: Anti-inflammatory activity in mouse RAW264.7 cells assessed as reduction in LPS-induced TNF-alpha production at 10 to 20 uM preincubated for 1 hr followed by LPS stimulation measured after 6 hrs by ELISA; type: functional, cell-based
# RAW264.7 [36] = assay: Anti-inflammatory activity in mouse RAW264.7 cells assessed as reduction in LPS-induced MCP-1 mRNA expression at 10 uM after 3 hrs by RT-PCR analysis; type: functional, cell-based
# Escherichia coli [37] = assay: Antibacterial activity against Escherichia coli KCTC 1682 after 24 hrs; type: functional; conditions: KCTC 1682, 24 h
# Staphylococcus aureus [38] = assay: Ratio of MIC for Staphylococcus aureus KCTC 1621 in presence of 20% human serum to MIC for Escherichia coli KCTC 1682 in presence of 20% human serum; type: functional
# Escherichia coli [39] = assay: Antibacterial activity against Escherichia coli KCTC 1682 in presence of 2.5 mM CaCl2 after 24 hrs; type: functional; conditions: KCTC 1682, 24 h
# [40] = Therapeutic index, ratio of MHC10 for human RBC to MIC for Escherichia coli KCTC 1682; type: toxicity; conditions: red blood cells (RBC), pooled result: one value given for 6 cell lines, strains, targets or settings, read-out: TI
compound,measurement,setting,value
CC[C@H](C)[C@H](NC(=O)[C@H](CCCNC(=N)N)NC(=O)[C@@H](N)CCCCN)C(=O)N[C@H](C(=O)N[C@@H](CCCCN)C(=O)N[C@@H](CC(C)C)C(=O)N[C@H](CC(C)C)C(=O)N[C@@H](CC(C)C)C(=O)N[C@@H](CCCCN)C(=O)N[C@@H](Cc1c[nH]c2ccccc12)C(=O)N[C@@H](CC(C)C)C(=O)N[C@@H](CCCNC(=N)N)C(N)=O)C(C)C,MIC,Pseudomonas aeruginosa [1],8 µM
same,Activity,RAW264.7 [2],Active
same,MIC,Staphylococcus aureus [3],4 µM
same,MIC,[4],4 µM
same,MIC,Escherichia coli [5],4 µM
same,MIC,Staphylococcus aureus [6],2 µM
same,MIC,Staphylococcus aureus [7],2 µM
same,MIC,Pseudomonas aeruginosa [8],8 µM
same,MIC,Escherichia coli [9],4 µM
same,MIC,Salmonella typhimurium,2 µM
same,MIC,Staphylococcus aureus [10],4 µM
same,Ratio,Enterococcus faecium [11],2 - 4
same,MIC,Pseudomonas aeruginosa [12],4 µM
same,MIC,Escherichia coli [13],4 µM
same,MIC,Staphylococcus aureus [14],4 µM
same,MIC,Staphylococcus aureus [15],8 µM
same,Ratio,Staphylococcus aureus [16],2 - 4
same,MHC10,Erythrocyte,111 µM
same,Ratio,Staphylococcus aureus [17],2 - 4
same,MIC,Bacillus subtilis,2 µM
same,Ratio,Enterococcus faecium [18],2 - 4
same,MIC,Escherichia coli [19],4 µM
same,Ratio,Staphylococcus aureus [20],2 - 4
same,KSV,[21],2.98 M⁻¹
same,Activity,RAW264.7 [22],Active
same,MBIC90,Pseudomonas aeruginosa [23],8 µM
same,Activity,RAW264.7 [24],Active
same,fractional inhibitory concentration index (FICI),Pseudomonas aeruginosa [25],0.3125
same,MIC,Escherichia coli [26],8 µM
same,Activity,RAW264.7 [27],Active
same,MIC,Staphylococcus aureus [28],2 µM
same,Ratio,Pseudomonas aeruginosa [29],2 - 4
same,KSV,Lipid bilayer,1.01 M⁻¹
same,Activity,Staphylococcus aureus [30],Active
same,Ratio,Pseudomonas aeruginosa [31],2 - 4
same,fractional inhibitory concentration index (FICI),Pseudomonas aeruginosa [32],0.5
same,MIC,Enterococcus faecium [33],4 µM
same,Ratio,Pseudomonas aeruginosa [34],2 - 4
same,Activity,RAW264.7 [35],Active
same,Activity,RAW264.7 [36],Active
same,MIC,Escherichia coli [37],4 µM
same,Ratio,Staphylococcus aureus [38],2 - 8
same,MIC,Escherichia coli [39],16 µM
same,selectivity ratio,[40],30
CC[C@H](C)[C@H](NC(=O)[C@H](CC(C)C)NC(=O)[C@H](CCCCN)NC(=O)[C@@H](NC(=O)[C@@H](NC(=O)[C@H](CCCNC(=N)N)NC(=O)[C@@H](N)CCCCN)[C@@H](C)CC)C(C)C)C(=O)N[C@@H](CC(C)C)C(=O)N[C@@H](CCCCN)C(=O)N[C@@H](Cc1c[nH]c2ccccc12)C(=O)N[C@@H](CC(C)C)C(=O)N[C@@H](CCCNC(=N)N)C(N)=O,MIC,Pseudomonas aeruginosa [1],16 µM
same,Activity,RAW264.7 [2],Active
same,MIC,Staphylococcus aureus [3],8 µM
same,MIC,[4],4 µM
same,MIC,Escherichia coli [5],8 µM
same,MIC,Staphylococcus aureus [6],4 µM
same,MIC,Staphylococcus aureus [7],2 µM
same,MIC,Pseudomonas aeruginosa [8],8 µM
same,MIC,Escherichia coli [9],8 µM
same,MIC,Salmonella typhimurium,2 µM
same,MIC,Staphylococcus aureus [10],2 µM
same,Ratio,Enterococcus faecium [11],2 - 4
same,MIC,Pseudomonas aeruginosa [12],8 µM
same,MIC,Escherichia coli [13],8 µM
same,MIC,Staphylococcus aureus [14],4 µM
same,MIC,Staphylococcus aureus [15],8 µM
same,Ratio,Staphylococcus aureus [16],2 - 4
same,MHC10,Erythrocyte,25 µM
same,Ratio,Staphylococcus aureus [17],2 - 4
same,MIC,Bacillus subtilis,8 µM
same,Ratio,Enterococcus faecium [18],2 - 4
same,MIC,Escherichia coli [19],8 µM
same,Ratio,Staphylococcus aureus [20],2 - 4
same,KSV,[21],1.66 M⁻¹
same,Activity,RAW264.7 [22],Active
same,MBIC90,Pseudomonas aeruginosa [23],16 µM
same,Activity,RAW264.7 [24],Active
same,fractional inhibitory concentration index (FICI),Pseudomonas aeruginosa [25],0.3125
same,MIC,Escherichia coli [26],8 µM
same,Activity,RAW264.7 [27],Active
same,MIC,Staphylococcus aureus [28],2 µM
same,Ratio,Pseudomonas aeruginosa [29],2 - 4
same,KSV,Lipid bilayer,1.12 M⁻¹
same,Activity,Staphylococcus aureus [30],Active
same,Ratio,Pseudomonas aeruginosa [31],2 - 4
same,fractional inhibitory concentration index (FICI),Pseudomonas aeruginosa [32],0.25
same,MIC,Enterococcus faecium [33],4 µM
same,Ratio,Pseudomonas aeruginosa [34],2 - 4
same,Activity,RAW264.7 [35],Active
same,Activity,RAW264.7 [36],Active
same,MIC,Escherichia coli [37],8 µM
same,Ratio,Staphylococcus aureus [38],2 - 8
same,MIC,Escherichia coli [39],8 µM
same,selectivity ratio,[40],4.4
